Experimental data from patent publication US7541467B2, “Fluorescent zinc ion sensor” (Sekisui Medical Co., Ltd., priority 2004, dated 2009).

Columns and labels:
[1] = Fluorescence on irradiation with and without added zinc ions; format: physicochemical
[2] = NMR titration
[3] = Fluorescent responses in the presence of various metal ions
[4] = Titration with zinc ions monitored by ultraviolet and visible absorption spectra; format: binding
Experimental: TQEN was titrated with zinc ions, and changes of ultraviolet and visible absorption spectra were monitored.
In the same manner as in Test Example 3, solution of 6OMeTQEN (concentration of 6OMeTQEN: 34 μM) in water-containing DMF (DMF:water=1:1) was titrated with zinc ions (0 to 68 μM), and changes in absorption were monitored by measuring ultraviolet and visible absorption spectra (FIG. 8).

fluorescence wavelength when zinc ions were added ([1]; excitation 340 nm, DMF:water=1:1, 34 μM, zinc ions 0 to 68 μM) | absorption wavelength longer than that of TQEN by ([4]; 34 μM in DMF:water=1:1) | absorption wavelength extended to ([4]; 34 μM in DMF:water=1:1, zinc ions 0 to 68 μM) | Structure (SMILES) | fluorescence wavelength when zinc ions were added ([1]; excitation 317 nm, DMF or DMF:water=1:1) | fluorescence without zinc ions ([1]; irradiated with light of 317 nm in DMF or DMF:water=1:1) | melting point | exchange rate between free and zinc-bound ligand [2] | fluorescence intensity in the presence of cadmium ions, relative to that in the presence of zinc ions [3] | fluorescence without zinc ions ([1]; irradiated with light of 340 nm, DMF:water=1:1, 34 μM)
– | – | – | c1ccc2nc(CN(CCN(Cc3ccc4ccccc4n3)Cc3ccc4ccccc4n3)Cc3ccc4ccccc4n3)ccc2c1 [TQEN, N,N,N′,N′-tetrakis(2-quinolylmethyl)ethylenediamine] | 383 nm | substantially no fluorescence was emitted | 196 to 198 °C | slower than the time scale of NMR | about 60% | –
410 nm | about 20 nm | around 350 nm | COc1ccc2nc(CN(CCN(Cc3ccc4cc(OC)ccc4n3)Cc3ccc4cc(OC)ccc4n3)Cc3ccc4cc(OC)ccc4n3)ccc2c1 [6OMeTQEN, N,N,N′,N′-tetrakis(6-methoxy-2-quinolylmethyl)-ethylenediamine] | – | – | 168 to 170 °C | – | – | substantially no fluorescence was emitted
